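In this assay, cells in 96-well plates receive the compound at five concentrations for 48 hours. Endpoints are linearly interpolated between the surrounding concentrations. Abbreviation: GI50, concentration required for 50% inhibition of growth.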 Active and inactive are the calls of the source. Cut-off read from the data, not from the text of the source: active = GI50 up to about 1.1 µM and inactive = higher.
What was measured:
Assay in all cases: DTP human tumour cell line panel, 48 h
[1] = test system: CAKI-1
[2] = test system: HCT-116
[3] = test system: A549
[4] = test system: PC-3
[5] = test system: RPMI-8226
[6] = test system: UACC-257
[7] = test system: NCI-H460
[8] = test system: MCF7
[9] = test system: SK-MEL-28
[10] = test system: EKVX
[11] = test system: HCC 2998
[12] = test system: HCT-15
[13] = test system: HOP-62
[14] = test system: MOLT-4
[15] = test system: ACHN
[16] = test system: SN12C
[17] = test system: HT-29
[18] = test system: T47D
[19] = test system: HL-60
[20] = test system: SF-539

| Compound | GI50 [1] | GI50 [2] | GI50 [3] | GI50 [4] | GI50 [5] | GI50 [6] | GI50 [7] | GI50 [8] | GI50 [9] | GI50 [10] | GI50 [11] | GI50 [12] [µM] | GI50 [13] | GI50 [14] | GI50 [15] | GI50 [16] | GI50 [17] | GI50 [18] | GI50 [19] | GI50 [20] |
| --- | --- | --- | --- | --- | --- | --- | --- | --- | --- | --- | --- | --- | --- | --- | --- | --- | --- | --- | --- | --- |
| CC(=O)c1c2c(cc3c1CC1(C3)Cc3cc4c(c(C(=O)O)c3C1)CCCC4)CCCC2.CC(N)c1ccccc1 (stereo not given) | 33.4 µM (inactive) | 25.1 µM (inactive) | 30.2 µM (inactive) | 39.7 µM (inactive) | 31.6 µM (inactive) | 30.9 µM (inactive) | 20.2 µM (inactive) | 29.1 µM (inactive) | 33.4 µM (inactive) | 26.4 µM (inactive) | 34.5 µM (inactive) | 33.7 | 21.6 µM (inactive) | 17.6 µM (inactive) | 28.8 µM (inactive) | 30.7 µM (inactive) | 34.1 µM (inactive) | 36.6 µM (inactive) | 25.5 µM (inactive) | – |
| Clc1ccc(C2ON=C(c3ccccc3)N2C23CC4CC(CC(C4)C2)C3)cc1Cl (stereo not given) | > 10 µM (inactive) | > 10 µM (inactive) | > 10 µM (inactive) | > 10 µM (inactive) | > 10 µM (inactive) | > 10 µM (inactive) | > 10 µM (inactive) | > 10 µM (inactive) | 7.93 µM (inactive) | > 10 µM (inactive) | > 10 µM (inactive) | > 10 | > 10 µM (inactive) | > 10 µM (inactive) | > 10 µM (inactive) | > 10 µM (inactive) | > 10 µM (inactive) | > 10 µM (inactive) | – | > 10 µM (inactive) |
| Cn1c2ccccc2c2c(=S)c3ccccc3ccc21 | > 100 µM (inactive) | 59 µM (inactive) | 71.4 µM (inactive) | 59.4 µM (inactive) | – | > 100 µM (inactive) | > 100 µM (inactive) | 56.8 µM (inactive) | > 100 µM (inactive) | 85.9 µM (inactive) | > 100 µM (inactive) | > 100 | 79.6 µM (inactive) | 16.2 µM (inactive) | > 100 µM (inactive) | > 100 µM (inactive) | 63.4 µM (inactive) | 20.7 µM (inactive) | > 100 µM (inactive) | – |
| CC(=O)O[C@H]1CCC2[C@@H]3CCC4Cc5nc6c(nc5C[C@]4(C)C3CC[C@@]21C)CC1CC[C@@H]2C(CC[C@@]3(C)C2CC[C@@H]3C(C)CCCC(C)C)[C@@]1(C)C6 (stereo not given in full) | – | > 100 µM (inactive) | > 100 µM (inactive) | > 100 µM (inactive) | > 100 µM (inactive) | > 100 µM (inactive) | > 100 µM (inactive) | > 100 µM (inactive) | > 100 µM (inactive) | > 100 µM (inactive) | – | > 100 | > 100 µM (inactive) | > 100 µM (inactive) | > 100 µM (inactive) | > 100 µM (inactive) | > 100 µM (inactive) | > 100 µM (inactive) | > 100 µM (inactive) | > 100 µM (inactive) |
| O=c1c(-c2ccccc2Cl)coc2cc(F)ccc12 | 29.1 µM (inactive) | 31.8 µM (inactive) | 23.7 µM (inactive) | > 100 µM (inactive) | – | 23.9 µM (inactive) | 37.6 µM (inactive) | 21.7 µM (inactive) | 63.5 µM (inactive) | 52.6 µM (inactive) | – | 31.8 | 22.2 µM (inactive) | 22 µM (inactive) | > 100 µM (inactive) | 53.2 µM (inactive) | 22.5 µM (inactive) | 45.1 µM (inactive) | 4.3 µM (inactive) | 11.9 µM (inactive) |
| CC/C=C/C(/C=C/C[C@]1(CC)C[C@H](CC)[C@H](CC(=O)O)OO1)CC (stereo not given in full) | 1.96 µM (inactive) | 2.46 µM (inactive) | 1.68 µM (inactive) | 1.67 µM (inactive) | 1.64 µM (inactive) | 14.5 µM (inactive) | 1.96 µM (inactive) | 2.51 µM (inactive) | 2.23 µM (inactive) | 1.76 µM (inactive) | – | 2.61 | 1.58 µM (inactive) | 2.31 µM (inactive) | 1.91 µM (inactive) | 5.65 µM (inactive) | 1.84 µM (inactive) | 2.75 µM (inactive) | 2.16 µM (inactive) | 1.82 µM (inactive) |
| C[n+]1c(-c2ccc(/C=N/N=C/c3ccc(-c4cn5ccccc5[n+]4C)cc3)cc2)cn2ccccc21 | – | > 100 µM (inactive) | > 100 µM (inactive) | > 100 µM (inactive) | > 100 µM (inactive) | > 100 µM (inactive) | > 100 µM (inactive) | > 100 µM (inactive) | > 100 µM (inactive) | > 100 µM (inactive) | > 100 µM (inactive) | > 100 | > 100 µM (inactive) | > 100 µM (inactive) | > 100 µM (inactive) | > 100 µM (inactive) | > 100 µM (inactive) | > 100 µM (inactive) | > 100 µM (inactive) | > 100 µM (inactive) |

Reference: ChEMBL document CHEMBL1201862, “PubChem BioAssay data set” (2004)
